Laboratory results reported in patent publication US20110092505A1, “ORGANIC COMPOUNDS” (priority 2008, published 2011).

How the values were obtained:
[1] = molecular target: T1, protein kinase D2 (PKD2) (Homo sapiens, UniProt Q9BZL6); assay: PKD2 TR-FRET (LANCE) kinase assay; type: biochemical; conditions: full length wild-type enzyme, 20 μM ATP, syntide-2 substrate; read-out: Inhibitory Activity PKD2
T1 construct: This assay is performed with full length wild-type enzyme purchase from Invitrogen; purchased Invitrogen
T1 sequence (Q9BZL6 1-878): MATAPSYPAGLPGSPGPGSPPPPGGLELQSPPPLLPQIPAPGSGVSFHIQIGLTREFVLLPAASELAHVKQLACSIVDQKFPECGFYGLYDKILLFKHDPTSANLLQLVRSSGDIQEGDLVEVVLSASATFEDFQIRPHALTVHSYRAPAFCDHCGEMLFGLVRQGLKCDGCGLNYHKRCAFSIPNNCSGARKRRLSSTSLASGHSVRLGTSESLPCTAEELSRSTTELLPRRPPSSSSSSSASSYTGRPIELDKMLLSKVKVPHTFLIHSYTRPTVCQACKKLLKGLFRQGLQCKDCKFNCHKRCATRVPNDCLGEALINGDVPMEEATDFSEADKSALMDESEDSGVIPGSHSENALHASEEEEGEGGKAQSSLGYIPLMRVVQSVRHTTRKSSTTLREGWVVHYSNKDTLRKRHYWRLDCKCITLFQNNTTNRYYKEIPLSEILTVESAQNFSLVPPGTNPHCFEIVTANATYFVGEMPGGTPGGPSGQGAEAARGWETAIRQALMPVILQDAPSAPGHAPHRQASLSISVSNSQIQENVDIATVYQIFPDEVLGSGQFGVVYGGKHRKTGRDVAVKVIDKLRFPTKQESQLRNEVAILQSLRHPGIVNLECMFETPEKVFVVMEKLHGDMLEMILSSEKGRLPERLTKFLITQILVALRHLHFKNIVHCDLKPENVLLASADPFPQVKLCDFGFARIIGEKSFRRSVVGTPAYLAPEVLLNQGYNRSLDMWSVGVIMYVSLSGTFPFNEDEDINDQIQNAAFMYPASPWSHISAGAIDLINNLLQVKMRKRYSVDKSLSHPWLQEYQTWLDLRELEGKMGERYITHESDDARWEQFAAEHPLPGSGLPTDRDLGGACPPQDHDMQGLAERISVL
Text: (§1) The assay to measure protein kinase D2 (PKD2) activity is a time-resolved fluorescence resonance transfer (TR-FRET) assay using PerkinElmer's LANCE™ technology. In this case, a biotinylated syntide-2 peptide is used as the substrate in this reaction. Phosphorylation of the syntide-2 substrate is detected by a specific antibody that recognizes the phosphorylated peptide. A second fluorophore, APC, is conjugated to streptavidin that binds the biotinylated syntide-2 peptide. […] Therefore, when the europium labeled secondary antibody binds on the phosphorylated peptide, it is brought into close contact with the APC and excites this fluorophore.
(§2) This assay is performed with full length wild-type enzyme purchase from Invitrogen. The reaction buffer consists of 35 mM Tris-HCl pH7.5, 5 mM MgCl2, 0.02% Tween-20, 20 μM ATP, 1 mM DTT and 0.2 μg/mL PKD2 enzyme. The enzyme reaction is initiated by the addition of 2 μM syntide-2 peptide substrate and the reaction carried out for 50 minutes at room temperature. The reaction is stopped by a stop/detection Buffer consisting of 50 mM EDTA, 0.18 mg/mL rabbit polyclonal anti-phospho Syntide-2 antibody, 0.5 nM europium labeled anti-rabbit IgG and 10 nM streptavidin conjugated APC. After a one hour incubation with the stop/detection buffer, the reaction is read on an Envision 2100 Reader using a LANCE™ Eu/APC dual protocol. […] IC50 values are calculated using an Activity Base (IDBS) software program.

[2] = molecular target: T2, protein kinase D1 (PKD1) (Homo sapiens, UniProt Q15139); assay: PKD1 TR-FRET (LANCE) kinase assay; type: biochemical; conditions: full length wild-type enzyme, 20 μM ATP, syntide-2 substrate; read-out: Inhibitory Activity PKD1
T2 construct: This assay is performed with full length wild-type enzyme that is expressed and purified from Sf9 insect cells; made in house; host or cells: Sf9 insect cells
T2 sequence (Q15139 1-912): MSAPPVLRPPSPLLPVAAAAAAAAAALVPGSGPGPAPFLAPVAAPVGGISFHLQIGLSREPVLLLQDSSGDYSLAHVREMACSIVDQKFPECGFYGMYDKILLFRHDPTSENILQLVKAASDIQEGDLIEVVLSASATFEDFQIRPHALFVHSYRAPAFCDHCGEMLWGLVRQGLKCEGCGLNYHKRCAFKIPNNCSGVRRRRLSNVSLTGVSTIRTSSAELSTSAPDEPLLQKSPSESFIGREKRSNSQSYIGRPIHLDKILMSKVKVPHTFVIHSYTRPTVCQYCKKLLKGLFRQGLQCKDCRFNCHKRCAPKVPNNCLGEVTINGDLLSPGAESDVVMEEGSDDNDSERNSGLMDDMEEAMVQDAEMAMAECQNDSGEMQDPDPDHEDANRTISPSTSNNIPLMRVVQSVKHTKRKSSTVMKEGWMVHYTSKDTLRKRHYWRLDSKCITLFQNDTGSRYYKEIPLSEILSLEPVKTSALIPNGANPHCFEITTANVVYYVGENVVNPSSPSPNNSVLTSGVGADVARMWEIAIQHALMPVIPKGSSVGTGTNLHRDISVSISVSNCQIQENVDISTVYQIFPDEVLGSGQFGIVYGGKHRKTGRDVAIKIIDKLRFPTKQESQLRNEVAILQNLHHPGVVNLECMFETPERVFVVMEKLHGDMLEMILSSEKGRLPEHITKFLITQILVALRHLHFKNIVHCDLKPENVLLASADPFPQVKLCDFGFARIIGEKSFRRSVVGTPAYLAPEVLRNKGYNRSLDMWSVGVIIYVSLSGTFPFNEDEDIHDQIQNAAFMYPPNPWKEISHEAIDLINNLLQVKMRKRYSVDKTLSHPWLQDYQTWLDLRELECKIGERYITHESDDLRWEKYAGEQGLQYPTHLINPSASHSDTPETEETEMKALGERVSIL
Text: as §1, with “D1 (PKD1)” for “D2 (PKD2)”
as §2, with “that is expressed and purified” for “purchase”, “Sf9 insect cells.” for “Invitrogen.”, “PKD1” for “PKD2”, “APC.” for “APC. After a one hour incubation with the stop/detection buffer, the reaction is read on an Envision 2100 Reader using a LANCE™ Eu/APC dual protocol.”

SMILES	IC50 [1] [nM]	IC50 [2] [nM]
CS(=O)(=O)c1cc(-c2ccnc(NC3CCCCC3)c2)nc(N2CCNCC2)c1 [Cyclohexyl-(4-methanesulfonyl-6-piperazin-1-yl-[2,4′]bipyridinyl-2′-yl)-amine]	735	63
FC(F)(F)c1cc(-c2ccnc(NC3CCCCC3)c2)nc(N2CCNCC2)c1 [Cyclohexyl-(6-piperazin-1-yl-4-trifluoromethyl-[2,4′]bipyridinyl-2′-yl)amine]	101	20
c1cc(-c2cc(-c3nnco3)cc(N3CCNCC3)n2)cc(NC2CCCCC2)n1 [Cyclohexyl-(4-[1,3,4]oxadiazol-2-yl-6-piperazin-1-yl-[2,4′]bipyridinyl-2′-yl)-amine]	214	12
NC(=O)c1cc(-c2ccnc(NC3CCCCC3)c2)nc(N2CCN3CCC[C@@H]3C2)c1 [2′-Cyclohexylamino-6-(R)-hexahydro-pyrrolo[1,2-a]pyrazin-2-yl-[2,4′]bipyridinyl-4-carboxylic acid amide]	297	35
O=C1NCc2c1cc(-c1ccnc(NC3CCCCC3)c1)nc2N1CCn2cnnc2C1 [6-(2-Cyclohexylamino-pyridin-4yl)-4-(5,6-dihydro-8H-[1,2,4]triazolo[4,3-a]pyrazin-7-yl)-2,3-dihydro-pyrrolo[3,4-c]pyridin-1-one]	466	56
N#CCNC(=O)c1ccc(-c2ccnc(NC3CCCCC3)c2)nc1N1CCNCC1 [2′-Cyclohexylamino-6-piperazin-1-yl-[2,4′]bipyridinyl-5-carbonxylic acid cyanomethyl-amide]	281	60
COC(=O)c1ccc(-c2ccnc(NC3CCCCC3)c2)nc1N1CCNCC1 [2′-Cyclohexylamino-6-piperazin-1-yl-[2,4′]bipyridinyl-5-carboxylic acid methyl ester]	500	83
Fc1ccc(Nc2cc(-c3ccnc(NC4CCCCC4)c3)nc(N3CCNCC3)c2)cc1 [N*2′*-Cyclohexyl-N*4*-(4-fluoro-phenyl)-6-piperazin-1-yl-[2,4′]bipyridinyl-4,2′-diamine]	1160	182

Further lines, results first:

IC50 [1] [nM]	IC50 [2] [nM]	SMILES
62	4	O=[N+]([O-])c1cc(-c2ccnc(NC3CCCCC3)c2)nc(N2CCNCC2)c1 [Cyclohexyl-(4-nitro-6-piperazin-1-yl-[2,4′]bipyridinyl-2′-yl)-amine]
402	2	NC(=O)c1cc(-c2ccnc(NCCc3ccc(O)cc3)c2)nc(N2CCNCC2)c1 [2′-[2-(4-Hydroxyphenyl)ethylamino]-6-piperazin-1-yl-[2,4′]bipyridinyl-4-carboxylic acid amide]
368	25	NC(=O)c1cc(-c2ccnc(NCc3ccccc3Cl)c2)nc(N2CCNCC2)c1 [2′-(2-Chlorobenzylamino-6-piperazin-1-yl-[2,4′]bipyridinyl-4-carboxylic acid amide]
361	10	Nc1cc(-c2ccnc(NC3CCCCC3)c2)nc(N2CCNCC2)c1 [N*2′*-Cyclohexyl-6-piperazin-1-yl-[2,4′]bipyridinyl-4,2′-diamine]
